# Reference: the supplement of paper PMC10307832
# How the values were obtained:
# Experiment in all cases: relative viability (nuclei count vs DMSO), 5 days (fraction); higher = more cells survive
# NCI-H2087 = test system: NCI-H2087
# Method in brief: (§1)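 Relative viability divides the nuclei count in treated wells by that in vehicle wells. Lung cancer cell lines were seeded in 1536-well plates, dosed by pin tool the next day, and fixed and stained after 5 days in one step with final 0.05% Triton X-100, 1% formaldehyde and 1 ug/ml Hoechst. Dosing was a single drug or a fixed anchor-drug dose plus five library-drug doses (not always all listed) in √10 steps, and values are medians of duplicate plates imaged at 4×.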
# HCC-78 = test system: HCC-78
# Method in brief: as §1
# HOP-62 = test system: HOP-62
# Method in brief: as §1
# ChaGo-K-1 = test system: ChaGo-K-1
# Method in brief: as §1
# NCI-H661 = test system: NCI-H661
# Method in brief: as §1
# HCC-44 = test system: HCC-44
# Method in brief: as §1
# SK-MES-1 = test system: SK-MES-1
# Method in brief: as §1
# NCI-H1650 = test system: NCI-H1650
# Method in brief: as §1
# NCI-H838 = test system: NCI-H838
# Method in brief: as §1
# LOU-NH91 = test system: LOU-NH91
# Method in brief: as §1
# NCI-H596 = test system: NCI-H596
# Method in brief: as §1
# HCC-366 = test system: HCC-366
# Method in brief: as §1
smiles,measurement,setting,value
O=C(O)CCCCC(CCSCc1ccccc1)SCc1ccccc1 (configuration not stated) [CPI-613] + O=C(CCCCCCC(=O)Nc1ccccc1)NO [Vorinostat] (partner 1 µM),relative viability,NCI-H2087; first compound 50 µM,0.689
same,relative viability,NCI-H2087; first compound 158.11 µM,0.374
same,relative viability,NCI-H2087; first compound 500 µM,0.0093
same,relative viability,HCC-78; first compound 15.81 µM,0.373
same,relative viability,HCC-78; first compound 50 µM,0.361
same,relative viability,HCC-78; first compound 158.11 µM,0.393
same,relative viability,HCC-78; first compound 500 µM,0.479
same,relative viability,HOP-62; first compound 5 µM,0.531
same,relative viability,HOP-62; first compound 15.81 µM,0.49
same,relative viability,HOP-62; first compound 50 µM,0.574
same,relative viability,HOP-62; first compound 158.11 µM,0.285
same,relative viability,HOP-62; first compound 500 µM,0.0726
same,relative viability,ChaGo-K-1; first compound 5 µM,0.737
same,relative viability,ChaGo-K-1; first compound 15.81 µM,0.685
same,relative viability,ChaGo-K-1; first compound 50 µM,0.744
same,relative viability,ChaGo-K-1; first compound 158.11 µM,0.518
same,relative viability,ChaGo-K-1; first compound 500 µM,0.301
same,relative viability,NCI-H661; first compound 5 µM,0.702
same,relative viability,NCI-H661; first compound 15.81 µM,0.702
same,relative viability,NCI-H661; first compound 50 µM,0.802
same,relative viability,NCI-H661; first compound 158.11 µM,0.423
same,relative viability,NCI-H661; first compound 500 µM,0.147
same,relative viability,HCC-44; first compound 5 µM,1.01
same,relative viability,HCC-44; first compound 15.81 µM,1.11
same,relative viability,HCC-44; first compound 50 µM,1.08
same,relative viability,HCC-44; first compound 158.11 µM,0.579
same,relative viability,HCC-44; first compound 500 µM,0.265
same,relative viability,SK-MES-1; first compound 5 µM,1.09
same,relative viability,SK-MES-1; first compound 15.81 µM,0.921
same,relative viability,SK-MES-1; first compound 50 µM,1.01
same,relative viability,SK-MES-1; first compound 158.11 µM,0.169
same,relative viability,SK-MES-1; first compound 500 µM,0.0799
same,relative viability,NCI-H1650; first compound 5 µM,0.521
same,relative viability,NCI-H1650; first compound 15.81 µM,0.469
same,relative viability,NCI-H1650; first compound 50 µM,0.507
same,relative viability,NCI-H1650; first compound 158.11 µM,0.142
same,relative viability,NCI-H1650; first compound 500 µM,0.0205
same,relative viability,NCI-H838; first compound 5 µM,0.675
same,relative viability,NCI-H838; first compound 15.81 µM,0.625
same,relative viability,NCI-H838; first compound 50 µM,0.797
same,relative viability,NCI-H838; first compound 158.11 µM,0.3
same,relative viability,NCI-H838; first compound 500 µM,0.107
same,relative viability,LOU-NH91; first compound 5 µM,0.891
same,relative viability,LOU-NH91; first compound 15.81 µM,0.844
same,relative viability,LOU-NH91; first compound 50 µM,0.871
same,relative viability,LOU-NH91; first compound 158.11 µM,0.837
same,relative viability,LOU-NH91; first compound 500 µM,0.622
same,relative viability,NCI-H596; first compound 5 µM,0.471
same,relative viability,NCI-H596; first compound 15.81 µM,0.621
same,relative viability,NCI-H596; first compound 50 µM,0.766
same,relative viability,NCI-H596; first compound 158.11 µM,0.3
same,relative viability,NCI-H596; first compound 500 µM,0.061
same,relative viability,HCC-366; first compound 5 µM,0.371
same,relative viability,HCC-366; first compound 15.81 µM,0.314
same,relative viability,HCC-366; first compound 50 µM,0.291
same,relative viability,HCC-366; first compound 158.11 µM,0.0721
same,relative viability,HCC-366; first compound 500 µM,0.0058
